Converted amounts (≈) assume the structure as drawn.

Format in all cases: functional
What all share (settings): read-out: ED50 (the source's name)

For one assay, the system named is HOP-92. The assay can be described thus: Cytotoxicity against human HOP92 cells.
The subject of the next assay is MCF7. As to the kind of experiment: Cytotoxicity against human MCF7 cells.
Another assay relates to HL-60. The assay can be described thus: Cytotoxicity against human HL-60(TB) cells.
The next assay has as its system CCRF-CEM. As to the kind of experiment: Cytotoxicity against human CCRF-CEM cells.
A further assay relates to IGROV-1. As to the kind of experiment: Cytotoxicity against human IGROV1 cells.
Another assay deals with SR. As to the kind of experiment: Cytotoxicity against human SR cells.
In the next assay the test system is RPMI-8226. As to the kind of experiment: Cytotoxicity against human RPMI8226 cells.
A further assay relates to BT-549. The assay can be described thus: Cytotoxicity against human BT549 cells.
A further assay has as its system K562. The assay can be described thus: Cytotoxicity against human K562 cells.

Take `C=C1C(=O)O[C@@H]2O[C@@]3(C)CC[C@H]4[C@H](C)CC[C@@H]1[C@@]24O3` [DEOXYARTEMISITENE]: the EC50 in the assay with HOP-92 is 0.92 µg/mL (≈ 3.48 µM); with MCF7 it was 1.46 µg/mL (≈ 5.52 µM); in the assay on HL-60, 0.69 µg/mL (≈ 2.61 µM); in the assay with CCRF-CEM it was 0.92 µg/mL (≈ 3.48 µM); in the assay with IGROV-1, 0.89 µg/mL (≈ 3.37 µM); in the assay on SR, 1.89 µg/mL (≈ 7.15 µM). The results for the EC50 in the assay on RPMI-8226, in the assay on BT-549 and in the assay on K562 were 1.68 µg/mL (≈ 6.36 µM), 1.97 µg/mL (≈ 7.45 µM) and 0.94 µg/mL (≈ 3.56 µM), respectively.
